Where “and” joins values, the source holds several entries; their conditions need not be identical. Equal entries are not always repeated.
What was measured:
Li-Pilo SE = assay: Lithium-pilocarpine model (Example 2): mortality and latency to SRS; assay type: in vivo, rat; set-up: degree of mortality: concentration or dose not given beside the values; conditions: for mortality over the first 48 h after SE: early cell counting group; for degree of mortality: latency to SRS / late cell counting group
Description: The model induced in rats by pilocarpine associated with lithium (Li-Pilo) reproduces most of the clinical and neurophysiological features of human temporal lobe epilepsy (See, Turski et al., 1989; Synapse 3:154-171; Cavalheiro, 1995, Ital J Neurol Sci 16:33-37). In adult rats, the systemic administration of pilocarpine leads to SE that may last for up to 24 h. The lethality rate reaches 30-50% during the first days. In the surviving animals, neuronal damage predominates within the hippocampal formation, the piriform and entorhinal cortices, thalamus, amygdaloid complex, neocortex and substantia nigra.
In the present study, we tested the effects of different doses of various doses of test compound, i.e. 30, 60, 90 and 120 mg/kg (referred to herein as RWJ30, RWJ60, RWJ90 and RWJ120) using the same design as in the previous study. The treatment was started one hour after the onset of status epilepticus (SE) and the animals were treated with a second injection of the same dose of the drug. This early treatment of SE was followed by a 6 day test compound treatment. This report concerns the effects of the four different doses of test compound on neuronal damage in hippocampus and parahippocampal cortices. The study on the latency to the onset of epilepsy is still incomplete but we will show the data we have got at present which have been performed on a limited group of animals. The latency to spontaneous epileptic seizures was correlated on the same rats to the number of neurons remaining in the areas involved in the circuit of seizures.
Adult male Sprague-Dawley rats provided by Janvier Breeding Center (Le Genest-St-Isle, France) were housed under controlled, uncrowded standard conditions at 20-22° C. (light/dark cycle, 7.00 a.m.-7.00 p.m. lights on), with food and water available ad libitum. All animal experimentation was performed in accordance with the rules of the European Communities Council Directive of Nov. 24, 1986 (86/609/EEC), and the French Department of Agriculture (License No 67-97).
All rats received lithium chloride (3 meq/kg, i.p., Sigma, St Louis, Mo., U.S.A.) and about 20 h later, all animals received also methylscopolamine bromide (1 mg/kg, s.c., Sigma) that was administered to limit the peripheral effects of the convulsant. SE was induced by injecting pilocarpine hydrochloride (25 mg/kg, s.c., Sigma) 30 min after methylscopolamine. The effects of increasing doses of test compound (RWJ) were studied in 5 groups of rats. The animals received either 2.5 mg/kg diazepam, i.m., (DZP), or 30, 60, 90 or 120 mg/kg of test compound (RWJ30, RWJ60, RWJ90, RWJ120), i.p., at 1 h after the onset of SE. The control group received vehicle instead of pilocarpine and test compound. The rats surviving SE were then injected about 10 h after the first test compound injection with a second i.p. injection of 1.25 mg/kg DZP for the DZP group or of the same dose of test compound as in the morning and were maintained under a twice daily test compound treatment for 6 additional days (s.c.) while DZP rats received a vehicle injection. The effects of the four doses of test compound on the latency to occurrence of spontaneous recurrent seizures (SRS) were investigated by daily video recording of the animals for 10 h per day.

Li-pilo induced SE = assay: Lithium-pilocarpine model (Example 1): quantification of cell densities; assay type: in vivo, rat
Description: Quantification of cell densities was performed at […] after SE on 8 pilo-DZP, 8 pilo-test10, 7 pilo-test30, 7 pilo-test60, and 6 saline-saline rats. At 14 days after SE, animals were deeply anesthetized with 1.8 g/kg pentobarbital (Dolethal®, Vetoquinol, Lure, France. Brains were then removed and frozen. Serial 20 μm slices were cut in a cryostat, air-dried during several days before thionine staining.
Quantification of cell densities was performed with a 10×10 boxes 1 cm^2 microscopic grid on coronal sections according to the stereotaxic coordinates of the rat brain atlas (Paxinos and Watson, 1986, The Rat brain in Stereotaxic Coordinates, 2nd ed. Academic Press, San Diego). Cell counts were performed twice in a blind manner and were the average of at least 3 values from 2 adjacent sections in each individual animal. Counts involved only cells larger than 10 μm, smaller ones being considered as glial cells.
For the comparison of the characteristics of SE in pilo-saline and pilo-test compound animals, a non-paired Student's t-test was used. The comparison between the number of rats seizing in both groups was performed by means of a Chi square test. For neuronal damage, statistical analysis between groups was performed using ANOVA followed by a Fisher's test for multiple comparisons using the Statview software (Fisher R A, 1946a, Statistical Methods for Research Workers (10th edition) Oliver & Boyd, Edinburgh; Fisher R A, 1946b, The Design of Experiments (4th edition) Oliver & Boyd, Edinburgh) Behavioral and EEG characteristics of lithium-pitocarpine status epilepticus

[1] = DZP, compared to saline-saline rats

**Q.** With `NC(=O)OC[C@@H](O)c1ccccc1Cl` [test compound] as the compound, how does the “latency to spontaneous seizures, individual rats” value (Li-Pilo SE; 30 mg/kg, two rats) read?
**A.** 8 days and 9 days

**Q.** What about the “first spontaneous seizure after SE, individual rats” value (shortened to “first spontaneous seizure after SE”) (Li-Pilo SE; 60 mg/kg, 3 rats) of the same compound?
**A.** 7 days and 8 days and 38 days

**Q.** And the “first spontaneous seizure after SE” value (Li-Pilo SE; 90 mg/kg, 3 rats)?
**A.** 9 days and 10 days and 51 days

**Q.** And the “first spontaneous seizure after SE” value (Li-Pilo SE; 120 mg/kg, 2/4 rats with prolonged latency)?
**A.** 79 days and 44 days

**Q.** And the “recording time following SE without any seizure” value (Li-Pilo SE; 120 mg/kg, the two other rats)?
**A.** > 5 months

**Q.** And the “mortality over the first 48 h after SE” value (Li-Pilo SE; RWJ30 (30 mg/kg i.p.))?
**A.** 43%

**Q.** What about the “mortality over the first 48 h after SE” value (Li-Pilo SE; RWJ60 (60 mg/kg i.p.)) of the same compound?
**A.** 0%

**Q.** And the “mortality over the first 48 h after SE” value (Li-Pilo SE; RWJ90 (90 mg/kg i.p.))?
**A.** 0%

**Q.** And the “mortality over the first 48 h after SE” value (Li-Pilo SE; RWJ120 (120 mg/kg i.p.))?
**A.** 47%

**Q.** And the degree of mortality (Li-Pilo SE; RWJ30)?
**A.** 50%

**Q.** And the degree of mortality (Li-Pilo SE; RWJ60)?
**A.** 0%

**Q.** And the degree of mortality (Li-Pilo SE; RWJ90)?
**A.** 0%

**Q.** And the degree of mortality (Li-Pilo SE; RWJ120)?
**A.** 0%

**Q.** And the “more damage compared with pilo-DZP rats, dorsal entorhinal cortex layers III-IV” value (Li-pilo induced SE; 10 mg/kg)?
**A.** 28%

**Q.** And the “more damage compared with pilo-DZP rats, ventral entorhinal cortex layers III-IV” value (Li-pilo induced SE; 10 mg/kg)?
**A.** 35%

**Q.** And the “neuroprotection compared to pilo-DZP rats, ventral entorhinal cortex layers III-IV” value (Li-pilo induced SE; 60 mg/kg)?
**A.** 31%

**Q.** What about the “neuroprotection in CA3b” value (Li-pilo induced SE; 60 mg/kg) of the same compound?
**A.** significantly neuroprotective

**Q.** And the “reduction of neuronal damage recorded in pilo-DZP rats, piriform cortex layer II” value (Li-pilo induced SE; 60 mg/kg)?
**A.** 41%

**Q.** And the “reduction of neuronal damage recorded in pilo-DZP rats, piriform cortex layers III-IV” value (Li-pilo induced SE; 60 mg/kg)?
**A.** 44%

**Q.** And the “reduction of neuronal damage, lateral thalamic nucleus” value (Li-pilo induced SE; 60 mg/kg)?
**A.** 65%

**Q.** What about the “reduction of neuronal damage, mediodorsal thalamic nucleus” value (Li-pilo induced SE; 60 mg/kg) of the same compound?
**A.** 42%

**Q.** What about the “neuroprotection in CA3a area” value (Li-pilo induced SE; 10, 30, 60 mg/kg) of the same compound?
**A.** did not afford any protection

**Q.** What about the “cell loss, hilus of dentate gyrus” value (Li-pilo induced SE; pilo-test compound animals (10-60 mg/kg)) of the same compound?
**A.** 69-72%

**Q.** And the “cell loss, CA1 pyramidal layer” value (Li-pilo induced SE; test compound 30 mg/kg)?
**A.** 35%

**Q.** And the “cell loss, CA1 pyramidal layer” value (Li-pilo induced SE; test compound 60 mg/kg)?
**A.** 16%

**Q.** `CN1C(=O)CN=C(c2ccccc2)c2cc(Cl)ccc21` [DZP, diazepam, reference compound] was tested. Which “latency to spontaneous seizures (mean)” value (Li-Pilo SE; DZP group, 7 rats) did it give?
**A.** 18 ± 8 days

**Q.** What about the “mortality over the first 48 h after SE” value (Li-Pilo SE; DZP 2.5 mg/kg i.m.) of the same compound?
**A.** 47%

**Q.** And the degree of mortality (Li-Pilo SE; DZP)?
**A.** 30%

**Q.** What about the “cell loss, CA3a” value (Li-pilo induced SE; [1]) of the same compound?
**A.** 54%

**Q.** And the “cell loss, CA3b” value (Li-pilo induced SE; [1])?
**A.** 31%

**Q.** And the “cell loss, dorsal entorhinal cortex layer II” value (Li-pilo induced SE; [1])?
**A.** 9%

**Q.** What about the “cell loss, dorsal entorhinal cortex layers III-IV” value (Li-pilo induced SE; [1]) of the same compound?
**A.** 15%

**Q.** What about the “cell loss, hilus of dentate gyrus” value (Li-pilo induced SE; [1]) of the same compound?
**A.** 73%

**Q.** What about the “cell loss, hippocampus CA1 pyramidal cell layer” value (Li-pilo induced SE; [1]) of the same compound?
**A.** 70% and 75%

**Q.** What about the “cell loss, lateral thalamic nucleus” value (Li-pilo induced SE; [1]) of the same compound?
**A.** 91%

**Q.** What about the “cell loss, mediodorsal thalamic nucleus” value (Li-pilo induced SE; [1]) of the same compound?
**A.** 56%

**Q.** And the “cell loss, piriform cortex layer II” value (Li-pilo induced SE; [1])?
**A.** 53%

**Q.** And the “cell loss, piriform cortex layers III-IV” value (Li-pilo induced SE; [1])?
**A.** total

**Q.** And the “cell loss, ventral entorhinal cortex layers III-IV” value (Li-pilo induced SE; [1])?
**A.** 44%

**Q.** And the “damage, ventral entorhinal cortex layer II” value (Li-pilo induced SE; [1])?
**A.** totally preserved
